The source of these data is US8952034B2, “Fused heterocyclic compounds as ion channel modulators” (Gilead Sciences, Inc., priority 2009, dated 2015).

Each structure is given as a SMILES string.

For this experiment, the target named is wild-type human cardiac sodium channel, hNav1.5 (Homo sapiens, UniProt Q14524). Nature of the experiment: Late INa screening assay (automated whole cell patch clamp, PatchXpress). It counts as cell-based. To be noted: compound at 1 μM; HEK293 cells expressing hNav1.5; late INa generated with 10 μM Tefluthrin (or 50 nM ATX II); read-out: LateINa_1 uM (percent block of late INa). Summed up: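 Late sodium current through wild-type human hNav1.5 stably expressed in HEK293 cells (no beta subunits) was recorded by automated whole-cell patch clamp on a PatchXpress 7000A at 24-27° C. Late INa was induced with 10 μM Tefluthrin or 50 nM ATX II. Cells were stepped from −120 mV to −20 mV for 250 ms at 0.1 Hz, and percent block was normalized to current in Na-free extracellular solution.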
Sequence of wild-type human cardiac sodium channel, hNav1.5 (Q14524 whole entry): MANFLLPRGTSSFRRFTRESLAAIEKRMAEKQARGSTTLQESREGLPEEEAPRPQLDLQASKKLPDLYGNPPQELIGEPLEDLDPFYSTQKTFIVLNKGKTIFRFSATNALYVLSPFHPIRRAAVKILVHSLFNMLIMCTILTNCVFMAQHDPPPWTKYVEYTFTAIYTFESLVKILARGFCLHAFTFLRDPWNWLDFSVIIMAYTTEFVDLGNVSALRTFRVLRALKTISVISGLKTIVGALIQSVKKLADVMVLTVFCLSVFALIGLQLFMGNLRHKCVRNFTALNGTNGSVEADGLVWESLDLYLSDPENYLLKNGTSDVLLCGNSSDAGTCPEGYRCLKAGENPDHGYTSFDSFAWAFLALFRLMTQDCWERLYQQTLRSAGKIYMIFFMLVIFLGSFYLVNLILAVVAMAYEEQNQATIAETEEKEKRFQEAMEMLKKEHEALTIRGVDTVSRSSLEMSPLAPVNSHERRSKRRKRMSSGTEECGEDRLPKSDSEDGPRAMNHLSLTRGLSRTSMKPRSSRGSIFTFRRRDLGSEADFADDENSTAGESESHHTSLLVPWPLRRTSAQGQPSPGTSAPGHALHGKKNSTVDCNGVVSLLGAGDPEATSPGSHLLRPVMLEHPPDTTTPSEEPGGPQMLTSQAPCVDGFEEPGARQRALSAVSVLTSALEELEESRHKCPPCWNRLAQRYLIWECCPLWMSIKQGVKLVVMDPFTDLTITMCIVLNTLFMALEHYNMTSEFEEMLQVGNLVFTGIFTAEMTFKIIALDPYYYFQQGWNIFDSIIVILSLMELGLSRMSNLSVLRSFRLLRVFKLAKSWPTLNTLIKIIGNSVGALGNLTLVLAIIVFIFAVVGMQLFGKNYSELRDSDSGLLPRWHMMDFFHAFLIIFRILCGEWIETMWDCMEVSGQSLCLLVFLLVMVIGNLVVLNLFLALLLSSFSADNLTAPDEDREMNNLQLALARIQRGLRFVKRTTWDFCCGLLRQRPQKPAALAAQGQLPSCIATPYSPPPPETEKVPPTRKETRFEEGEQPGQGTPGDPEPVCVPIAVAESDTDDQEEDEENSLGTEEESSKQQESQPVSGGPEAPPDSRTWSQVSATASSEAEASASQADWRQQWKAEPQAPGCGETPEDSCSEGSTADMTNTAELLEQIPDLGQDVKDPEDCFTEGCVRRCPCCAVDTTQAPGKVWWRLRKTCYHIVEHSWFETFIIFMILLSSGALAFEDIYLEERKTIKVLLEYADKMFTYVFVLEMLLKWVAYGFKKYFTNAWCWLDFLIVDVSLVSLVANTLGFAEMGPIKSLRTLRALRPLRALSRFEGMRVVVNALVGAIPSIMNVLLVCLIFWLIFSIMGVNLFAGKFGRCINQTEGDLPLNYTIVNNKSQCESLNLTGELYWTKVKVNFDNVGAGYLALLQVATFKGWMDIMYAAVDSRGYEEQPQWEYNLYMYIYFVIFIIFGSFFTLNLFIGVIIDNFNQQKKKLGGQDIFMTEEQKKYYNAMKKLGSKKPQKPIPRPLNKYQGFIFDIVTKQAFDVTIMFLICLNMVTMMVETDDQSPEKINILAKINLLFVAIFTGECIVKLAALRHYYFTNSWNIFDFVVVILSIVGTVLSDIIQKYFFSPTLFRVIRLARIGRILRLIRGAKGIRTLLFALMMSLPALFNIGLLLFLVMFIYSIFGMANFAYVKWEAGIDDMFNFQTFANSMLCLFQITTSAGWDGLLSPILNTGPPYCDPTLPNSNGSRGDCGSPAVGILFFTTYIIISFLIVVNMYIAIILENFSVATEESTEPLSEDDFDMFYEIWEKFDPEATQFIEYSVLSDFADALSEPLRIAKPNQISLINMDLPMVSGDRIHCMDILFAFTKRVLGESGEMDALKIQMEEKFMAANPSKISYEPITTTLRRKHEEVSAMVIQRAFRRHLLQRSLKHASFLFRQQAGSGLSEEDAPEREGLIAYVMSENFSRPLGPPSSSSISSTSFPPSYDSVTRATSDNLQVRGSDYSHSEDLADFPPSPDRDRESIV
On to `COCC(F)(F)c1nnc2ccc(-c3ccc(Oc4ccc(F)cc4)cc3)cn12` [BHN-138, 3-(1,1-difluoro-2-methoxyethyl)-6-[4-(4-fluorophenoxy)phenyl][1,2,4]triazolo[4,3-a]pyridine], for which the inhibition at 1 µM was found to be 42.8%.

Regarding `FC(F)(F)Oc1ccc(-c2ccc3nnc(C(F)(F)COCc4cccnc4)n3c2)cc1` [BHN-139, 3-[1,1-difluoro-2-(pyridin-3-ylmethoxy)ethyl]-6-[4-(trifluoromethoxy)phenyl][1,2,4]triazolo[4,3-a]pyridine], the inhibition at 1 µM was 15.4%.

Turning to `COC(F)(F)c1nnc2ccc(-c3ccc(OC(F)(F)F)cc3)cn12` [BHN-140, 3-[difluoro(methoxy)methyl]-6-[4-(trifluoromethoxy)phenyl][1,2,4]triazolo[4,3-a]pyridine], the inhibition at 1 µM amounted to 53.2%.

On to `COCCOC(F)(F)c1nnc2ccc(-c3ccc(OC(F)(F)F)cc3)cn12` [BHN-141, 3-[difluoro(2-methoxyethoxy)methyl]-6-[4-(trifluoromethoxy)phenyl][1,2,4]triazolo[4,3-a]pyridine], for which the inhibition at 1 µM worked out at 32.5%.

Regarding `CC1(COC(F)(F)c2nnc3ccc(-c4ccc(OC(F)(F)F)cc4)cn23)COC1` [BHN-142, 3-{difluoro[(3-methyloxetan-3-yl)methoxy]methyl}-6-[4-(trifluoromethoxy)phenyl][1,2,4]triazolo[4,3-a]pyridine], the inhibition at 1 µM came to 38.8%.

For `FC(F)(F)Oc1ccc(-c2ccc3nnc(Oc4ccccc4)n3c2)cc1` [BHN-143, 3-phenoxy-6-[4-(trifluoromethoxy)phenyl][1,2,4]triazolo[4,3-a]pyridine], the inhibition at 1 µM was 81.4%.

As to `COCC(F)(F)c1nnc2ccc(-c3ccc(OCC(F)(F)F)nc3)cn12` [BHN-144, 3-(1,1-difluoro-2-methoxyethyl)-6-[6-(2,2,2-trifluoroethoxy)pyridin-3-yl][1,2,4]triazolo[4,3-a]pyridine], the inhibition at 1 µM is 36.4%.

For `Fc1cc(OC(F)(F)F)ccc1-c1ccc2nnc(C(F)(F)F)n2c1` [BHN-145, 6-[2-fluoro-4-(trifluoromethoxy)phenyl]-3-(trifluoromethyl)[1,2,4]triazolo[4,3-a]pyridine], the inhibition at 1 µM worked out at 55.3%.

On to `Fc1cc(-c2ccc3nnc(C(F)(F)F)n3c2)ccc1OC(F)(F)F` [BHN-146, 6-[3-fluoro-4-(trifluoromethoxy)phenyl]-3-(trifluoromethyl)[1,2,4]triazolo[4,3-a]pyridine], for which the inhibition at 1 µM is 58.2%.

As for `Cc1nc(COC(F)(F)c2nnc3ccc(-c4ccc(OC(F)(F)F)cc4)cn23)no1` [BHN-147, 3-{difluoro[(5-methyl-1,2,4-oxadiazol-3-yl)methoxy]methyl}-6-[4-(trifluoromethoxy)phenyl][1,2,4]triazolo[4,3-a]pyridine], the inhibition at 1 µM amounted to 29.1%.

As to `FC(F)(F)Oc1ccc(-c2ccc3nnc(C(F)(F)OCc4ccccc4)n3c2)cc1` [BHN-148, 3-[(benzyloxy)(difluoro)methyl]-6-[4-(trifluoromethoxy)phenyl][1,2,4]triazolo[4,3-a]pyridine], the inhibition at 1 µM came to 71.7%.

In the case of `FC(F)(F)Oc1ccc(-c2ccc3nnc(C(F)(F)OCc4ccncc4)n3c2)cc1` [BHN-149, 3-[difluoro(pyridin-4-ylmethoxy)methyl]-6-[4-(trifluoromethoxy)phenyl][1,2,4]triazolo[4,3-a]pyridine], the inhibition at 1 µM stood at 34%.

Take `CN(C)CCOCC(F)(F)c1nnc2ccc(-c3ccc(OC(F)(F)F)cc3)cn12` [BHN-150, 2-(2,2-difluoro-2-{6-[4-(trifluoromethoxy)phenyl][1,2,4]triazolo[4,3-a]pyridin-3-yl}ethoxy)-N,N-dimethylethanamine]: the inhibition at 1 µM is 15.6%.

For the molecule `FC(F)(F)c1nnc2ccc(-c3ccc(OCC4CC4)cc3)cn12` [BHN-151, 6-[4-(cyclopropylmethoxy)phenyl]-3-(trifluoromethyl)[1,2,4]triazolo[4,3-a]pyridine], the inhibition at 1 µM came out at 43.1%.

For `COc1cc(OC(F)(F)F)ccc1-c1ccc2nnc(C(F)(F)F)n2c1` [BHN-152, 6-[2-methoxy-4-(trifluoromethoxy)phenyl]-3-(trifluoromethyl)[1,2,4]triazolo[4,3-a]pyridine], the inhibition at 1 µM was found to be 71.8%.

Turning to `FC(F)(F)Oc1ccc(-c2ccc3nnc(C(F)(F)F)n3c2)cc1-c1nnco1` [BHN-153, 6-[3-(1,3,4-oxadiazol-2-yl)-4-(trifluoromethoxy)phenyl]-3-(trifluoromethyl)[1,2,4]triazolo[4,3-a]pyridine], the inhibition at 1 µM amounted to 17.2%.

Turning to `CC(=O)c1ccc(-c2ccc3nnc(C(F)(F)F)n3c2)cc1` [BHN-154, 1-(4-(3-(trifluoromethyl)-[1,2,4]triazolo[4,3-a]pyridin-6-yl)phenyl)ethanone], the inhibition at 1 µM is 19.2%.

Consider `OC(c1nnc2ccc(-c3ccc(OC(F)(F)F)cc3)cn12)C(F)(F)F` (stereo not drawn) [BHN-155, 2,2,2-trifluoro-1-{6-[4-(trifluoromethoxy)phenyl][1,2,4]triazolo[4,3-a]pyridin-3-yl}ethanol], for which the inhibition at 1 µM amounted to 16.2%.

Turning to `N#CCOCC(F)(F)c1nnc2ccc(-c3ccc(OC(F)(F)F)cc3)cn12` [BHN-156, (2,2-difluoro-2-{6-[4-(trifluoromethoxy)phenyl][1,2,4]triazolo[4,3-a]pyridin-3-yl}ethoxy)acetonitrile], the inhibition at 1 µM stood at 22.3%.

For the molecule `OCCOC(F)(F)c1nnc2ccc(-c3ccc(OC(F)(F)F)cc3)cn12` [BHN-157, 2-(difluoro{6-[4-(trifluoromethoxy)phenyl][1,2,4]triazolo[4,3-a]pyridin-3-yl}methoxy)ethanol], the inhibition at 1 µM came to 18.3%.

For the molecule `CC(O)COC(F)(F)c1nnc2ccc(-c3ccc(OC(F)(F)F)cc3)cn12` (stereo not drawn) [BHN-158, 1-(difluoro{6-[4-(trifluoromethoxy)phenyl][1,2,4]triazolo[4,3-a]pyridin-3-yl}methoxy)propan-2-ol], the inhibition at 1 µM is 32.9%.

Turning to `FC(F)(F)Oc1ccc(-c2ccc3nnc(C(F)(F)CCl)n3c2)cc1` [BHN-160, 3-(2-chloro-1,1-difluoroethyl)-6-[4-(trifluoromethoxy)phenyl][1,2,4]triazolo[4,3-a]pyridine], the inhibition at 1 µM was 62%.

Regarding `FC(F)(F)Oc1ccc(-c2ccc3nnc(C(F)(F)F)n3c2)c2ncccc12` [BHN-161, 5-(trifluoromethoxy)-8-[3-(trifluoromethyl)[1,2,4]triazolo[4,3-a]pyridin-6-yl]quinoline], the inhibition at 1 µM is 49.5%.

Take `CC1(c2ccc(-c3ccc4nnc(C(F)(F)F)n4c3)cc2)OCCO1` [BHN-162, 6-[4-(2-methyl-1,3-dioxolan-2-yl)phenyl]-3-(trifluoromethyl)[1,2,4]triazolo[4,3-a]pyridine]: the inhibition at 1 µM was found to be 29.9%.

For `FC(F)(F)c1nnc2ccc(C#Cc3ccccc3)cn12` [BHN-163, 6-(phenylethynyl)-3-(trifluoromethyl)[1,2,4]triazolo[4,3-a]pyridine], the inhibition at 1 µM came out at 57.3%.

With `FC(F)(F)Oc1ccc(-c2ccc3nnc(C(F)(F)F)n3c2)cc1Cl` [BHN-164, 6-[3-chloro-4-(trifluoromethoxy)phenyl]-3-(trifluoromethyl)[1,2,4]triazolo[4,3-a]pyridine], the inhibition at 1 µM is 50.7%.

Turning to `CC(O)C(F)(F)c1nnc2ccc(-c3ccc(OC(F)(F)F)cc3)cn12` (stereo not drawn) [BHN-165, 1,1-difluoro-1-{6-[4-(trifluoromethoxy)phenyl][1,2,4]triazolo[4,3-a]pyridin-3-yl}propan-2-ol], the inhibition at 1 µM came out at 28.1%.

For `OC(C1CC1)C(F)(F)c1nnc2ccc(-c3ccc(OC(F)(F)F)cc3)cn12` (stereo not drawn) [BHN-166, 1-cyclopropyl-2,2-difluoro-2-{6-[4-(trifluoromethoxy)phenyl][1,2,4]triazolo[4,3-a]pyridin-3-yl}ethanol], the inhibition at 1 µM is 29.5%.

`CCOC(=O)COCC(F)(F)c1nnc2ccc(-c3ccc(OC(F)(F)F)cc3)cn12` [BHN-167, ethyl (2,2-difluoro-2-{6-[4-(trifluoromethoxy)phenyl][1,2,4]triazolo[4,3-a]pyridin-3-yl}ethoxy)acetate]: the inhibition at 1 µM is 45.8%.

`C/C(=C\C#N)c1ccc(-c2ccc3nnc(C(F)(F)F)n3c2)cc1` [BHN-169, (2E)-3-{4-[3-(trifluoromethyl)[1,2,4]triazolo[4,3-a]pyridin-6-yl]phenyl}but-2-enenitrile]: the inhibition at 1 µM turned out to be 30.5%.

Take `FC(F)(F)Oc1ccc(-c2ccc3nnc(Sc4ccccc4)n3c2)cc1` [BHN-170, 3-(phenylsulfanyl)-6-[4-(trifluoromethoxy)phenyl][1,2,4]triazolo[4,3-a]pyridine]: the inhibition at 1 µM is 66.2%.

Take `FC(F)(F)Oc1ccc(-c2ccc3nnc(C#CC4CC4)n3c2)cc1` [BHN-171, 3-(cyclopropylethynyl)-6-[4-(trifluoromethoxy)phenyl][1,2,4]triazolo[4,3-a]pyridine]: the inhibition at 1 µM amounted to 49.3%.

As to `FC(F)(F)Oc1ccc(-c2ccc3nnc(C(F)(F)COCc4ccccn4)n3c2)cc1` [BHN-172, 3-[1,1-difluoro-2-(pyridin-2-ylmethoxy)ethyl]-6-[4-(trifluoromethoxy)phenyl][1,2,4]triazolo[4,3-a]pyridine], the inhibition at 1 µM was 30.7%.

`CC(C)(O)C#Cc1nnc2ccc(-c3ccc(OC(F)(F)F)cc3)cn12` [BHN-173, 2-methyl-4-{6-[4-(trifluoromethoxy)phenyl][1,2,4]triazolo[4,3-a]pyridin-3-yl}but-3-yn-2-ol]: the inhibition at 1 µM came to 30.8%.

Regarding `CNC(=O)c1cc(-c2ccc3nnc(C(F)(F)F)n3c2)ccc1OC(F)(F)F` [BHN-174, N-methyl-2-(trifluoromethoxy)-5-[3-(trifluoromethyl)[1,2,4]triazolo[4,3-a]pyridin-6-yl]benzamide], the inhibition at 1 µM turned out to be 16%.

For the molecule `CS(=O)(=O)NCC(F)(F)c1nnc2ccc(-c3ccc(OC(F)(F)F)cc3)cn12` [BHN-175, N-(2,2-difluoro-2-{6-[4-(trifluoromethoxy)phenyl][1,2,4]triazolo[4,3-a]pyridin-3-yl}ethyl)methanesulfonamide], the inhibition at 1 µM came to 16.3%.
